Earlier results, collected in US11413278B2, “Compounds and methods for promoting stress resistance” (priority 2015, dated 2022).

Target: T1, SENP7 (Homo sapiens, UniProt Q9BQF6)
T1 sequence (Q9BQF6 1-1050): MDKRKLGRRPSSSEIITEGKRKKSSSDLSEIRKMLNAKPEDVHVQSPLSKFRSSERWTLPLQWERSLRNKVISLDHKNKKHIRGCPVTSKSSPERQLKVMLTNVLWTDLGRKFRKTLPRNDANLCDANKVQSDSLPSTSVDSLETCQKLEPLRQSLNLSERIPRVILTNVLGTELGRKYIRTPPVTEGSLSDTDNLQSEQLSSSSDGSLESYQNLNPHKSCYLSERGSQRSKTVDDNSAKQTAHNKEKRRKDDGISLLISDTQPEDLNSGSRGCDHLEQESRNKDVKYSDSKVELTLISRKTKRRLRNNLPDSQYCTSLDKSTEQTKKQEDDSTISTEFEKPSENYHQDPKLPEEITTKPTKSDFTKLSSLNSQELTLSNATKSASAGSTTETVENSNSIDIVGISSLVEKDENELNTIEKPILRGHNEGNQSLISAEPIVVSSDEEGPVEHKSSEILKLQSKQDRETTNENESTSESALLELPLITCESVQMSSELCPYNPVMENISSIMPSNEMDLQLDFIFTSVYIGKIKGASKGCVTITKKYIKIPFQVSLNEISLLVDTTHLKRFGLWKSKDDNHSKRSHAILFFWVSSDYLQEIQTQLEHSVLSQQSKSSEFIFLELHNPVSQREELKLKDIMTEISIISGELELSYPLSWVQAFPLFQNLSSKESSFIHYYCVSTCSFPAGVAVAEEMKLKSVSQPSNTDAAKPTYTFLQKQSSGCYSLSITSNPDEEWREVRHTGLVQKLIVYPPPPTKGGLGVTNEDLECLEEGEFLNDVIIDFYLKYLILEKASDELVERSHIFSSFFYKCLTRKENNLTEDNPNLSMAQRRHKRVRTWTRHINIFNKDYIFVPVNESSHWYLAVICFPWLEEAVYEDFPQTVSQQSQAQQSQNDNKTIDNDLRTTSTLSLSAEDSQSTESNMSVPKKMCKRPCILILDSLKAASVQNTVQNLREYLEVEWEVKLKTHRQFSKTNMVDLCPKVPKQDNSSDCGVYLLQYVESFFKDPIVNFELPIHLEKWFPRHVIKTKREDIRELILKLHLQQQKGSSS
Conditions: 2 screens; 5.0 μM or 12. μM; cited from earlier work

Q: Which SENP7 inhibition does the source give for `Cc1ccc(NC(=O)c2ccc([N+](=O)[O-])o2)cc1C` [Gr-1F] here?
A: ~90%
